These are literature values, as cited in patent US9328386B2, “Markers for susceptibility to an inhibitor of an Src-family kinase” (Evotec (München) GmbH, priority 2011, dated 2016).

The series has as its system MDA-MB-468 breast cancer cell line. As to conditions: dasatinib, cited from earlier work.

Regarding `Cc1nc(Nc2ncc(C(=O)Nc3c(C)cccc3Cl)s2)cc(N2CCN(CCO)CC2)n1` [dasatinib, N-(2-chloro-6-methylphenyl)-2-[[6-[4-(2-hydroxyethyl)piperazin-1-yl]-2-methylpyrimidin-4-yl]amino]-1,3-thiazole-5-carboxamide], the Sensitivity class was more than 1000 nM. In addition, the GI50 (commonly the concentration that inhibits growth by half) (Huang et al. 2007, read-out: GI50 literature) was 7.13 µM.
